# The source made the active and inactive calls. For most assays here, no stated cut-off is given here; in the data, actives have a measured Kd and inactives only a lower limit.
# Tests used:
# [1] = target: Macrophage-stimulating protein receptor (Homo sapiens, UniProt Q04912)
# [2] = target: AP2-associated protein kinase 1 (Homo sapiens, UniProt Q2M2I8)
# [3] = target: T1, Serine/threonine-protein kinase D3 (Homo sapiens, UniProt O94806)
# T1 sequence (O94806 whole entry): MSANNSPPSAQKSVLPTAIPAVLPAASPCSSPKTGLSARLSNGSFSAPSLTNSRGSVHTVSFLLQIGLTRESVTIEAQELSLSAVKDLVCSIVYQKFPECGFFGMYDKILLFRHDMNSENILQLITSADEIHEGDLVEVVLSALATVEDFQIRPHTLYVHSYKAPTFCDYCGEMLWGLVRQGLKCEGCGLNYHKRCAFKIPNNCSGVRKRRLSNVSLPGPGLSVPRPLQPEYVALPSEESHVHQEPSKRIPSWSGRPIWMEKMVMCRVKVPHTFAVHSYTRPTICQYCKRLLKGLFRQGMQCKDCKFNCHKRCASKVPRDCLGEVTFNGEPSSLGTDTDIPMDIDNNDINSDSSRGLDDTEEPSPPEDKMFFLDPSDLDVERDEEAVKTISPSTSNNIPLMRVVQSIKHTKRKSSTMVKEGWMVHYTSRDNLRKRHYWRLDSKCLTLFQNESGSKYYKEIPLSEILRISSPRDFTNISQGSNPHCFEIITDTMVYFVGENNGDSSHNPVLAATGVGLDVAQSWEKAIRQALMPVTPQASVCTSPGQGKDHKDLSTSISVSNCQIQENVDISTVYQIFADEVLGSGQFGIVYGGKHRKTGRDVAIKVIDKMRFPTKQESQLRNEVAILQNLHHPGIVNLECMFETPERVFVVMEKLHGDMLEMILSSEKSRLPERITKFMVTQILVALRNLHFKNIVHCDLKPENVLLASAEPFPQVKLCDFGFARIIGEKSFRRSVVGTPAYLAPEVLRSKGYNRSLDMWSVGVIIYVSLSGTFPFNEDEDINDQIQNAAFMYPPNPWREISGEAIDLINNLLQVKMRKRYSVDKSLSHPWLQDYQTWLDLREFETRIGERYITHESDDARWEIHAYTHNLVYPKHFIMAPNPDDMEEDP
# [4] = target: Cyclin-dependent kinase 2 (Homo sapiens, UniProt P24941)
# [5] = target: T2, Serine/threonine-protein kinase LATS1 (Homo sapiens, UniProt O95835)
# T2 sequence (O95835 whole entry): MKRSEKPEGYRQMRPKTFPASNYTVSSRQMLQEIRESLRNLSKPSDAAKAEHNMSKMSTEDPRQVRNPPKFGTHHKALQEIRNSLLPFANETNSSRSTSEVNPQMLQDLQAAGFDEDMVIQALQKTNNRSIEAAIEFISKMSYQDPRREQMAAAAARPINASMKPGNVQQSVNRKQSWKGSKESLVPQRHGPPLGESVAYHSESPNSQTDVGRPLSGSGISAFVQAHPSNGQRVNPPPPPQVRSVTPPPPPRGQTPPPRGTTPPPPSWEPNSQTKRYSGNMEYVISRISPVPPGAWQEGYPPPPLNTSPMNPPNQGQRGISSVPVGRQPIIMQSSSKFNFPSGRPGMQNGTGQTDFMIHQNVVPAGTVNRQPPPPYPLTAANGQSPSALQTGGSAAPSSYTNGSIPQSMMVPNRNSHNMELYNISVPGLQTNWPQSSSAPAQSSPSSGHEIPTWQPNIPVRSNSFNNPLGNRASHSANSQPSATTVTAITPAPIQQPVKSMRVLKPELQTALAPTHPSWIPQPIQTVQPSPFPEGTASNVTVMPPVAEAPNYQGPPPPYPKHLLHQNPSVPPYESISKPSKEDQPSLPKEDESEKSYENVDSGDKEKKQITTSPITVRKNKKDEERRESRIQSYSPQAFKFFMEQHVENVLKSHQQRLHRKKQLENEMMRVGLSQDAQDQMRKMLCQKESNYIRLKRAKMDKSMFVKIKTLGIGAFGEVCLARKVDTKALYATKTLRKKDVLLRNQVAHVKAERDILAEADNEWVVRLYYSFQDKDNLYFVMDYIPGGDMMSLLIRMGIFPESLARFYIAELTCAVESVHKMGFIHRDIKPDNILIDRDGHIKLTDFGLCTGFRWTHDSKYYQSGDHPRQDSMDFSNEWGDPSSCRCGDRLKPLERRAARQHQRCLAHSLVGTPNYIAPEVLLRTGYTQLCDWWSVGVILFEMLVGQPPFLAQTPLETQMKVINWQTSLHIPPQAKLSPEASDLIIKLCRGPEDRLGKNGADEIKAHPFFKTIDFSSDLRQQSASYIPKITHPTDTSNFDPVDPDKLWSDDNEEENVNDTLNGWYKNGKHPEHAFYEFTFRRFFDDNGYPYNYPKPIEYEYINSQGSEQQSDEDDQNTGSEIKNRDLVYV
# [6] = target: Mitogen-activated protein kinase 10 (Homo sapiens, UniProt P53779)
# Chain of Mitogen-activated protein kinase 10 (P53779 whole entry): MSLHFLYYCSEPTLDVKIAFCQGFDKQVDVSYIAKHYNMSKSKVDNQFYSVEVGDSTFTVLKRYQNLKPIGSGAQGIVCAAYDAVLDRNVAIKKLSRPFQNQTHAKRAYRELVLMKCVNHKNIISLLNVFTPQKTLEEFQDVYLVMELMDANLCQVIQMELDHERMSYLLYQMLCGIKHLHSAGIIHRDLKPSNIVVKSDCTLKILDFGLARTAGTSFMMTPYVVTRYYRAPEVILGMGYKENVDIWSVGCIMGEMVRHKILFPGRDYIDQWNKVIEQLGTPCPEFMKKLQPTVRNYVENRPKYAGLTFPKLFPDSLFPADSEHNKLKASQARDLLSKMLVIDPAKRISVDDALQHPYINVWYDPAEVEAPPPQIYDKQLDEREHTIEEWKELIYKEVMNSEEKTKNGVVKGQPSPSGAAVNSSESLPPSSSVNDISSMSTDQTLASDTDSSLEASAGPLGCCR
# [7] = target: BMP-2-inducible protein kinase (Homo sapiens, UniProt Q9NSY1)
# Chain of BMP-2-inducible protein kinase (Q9NSY1 whole entry): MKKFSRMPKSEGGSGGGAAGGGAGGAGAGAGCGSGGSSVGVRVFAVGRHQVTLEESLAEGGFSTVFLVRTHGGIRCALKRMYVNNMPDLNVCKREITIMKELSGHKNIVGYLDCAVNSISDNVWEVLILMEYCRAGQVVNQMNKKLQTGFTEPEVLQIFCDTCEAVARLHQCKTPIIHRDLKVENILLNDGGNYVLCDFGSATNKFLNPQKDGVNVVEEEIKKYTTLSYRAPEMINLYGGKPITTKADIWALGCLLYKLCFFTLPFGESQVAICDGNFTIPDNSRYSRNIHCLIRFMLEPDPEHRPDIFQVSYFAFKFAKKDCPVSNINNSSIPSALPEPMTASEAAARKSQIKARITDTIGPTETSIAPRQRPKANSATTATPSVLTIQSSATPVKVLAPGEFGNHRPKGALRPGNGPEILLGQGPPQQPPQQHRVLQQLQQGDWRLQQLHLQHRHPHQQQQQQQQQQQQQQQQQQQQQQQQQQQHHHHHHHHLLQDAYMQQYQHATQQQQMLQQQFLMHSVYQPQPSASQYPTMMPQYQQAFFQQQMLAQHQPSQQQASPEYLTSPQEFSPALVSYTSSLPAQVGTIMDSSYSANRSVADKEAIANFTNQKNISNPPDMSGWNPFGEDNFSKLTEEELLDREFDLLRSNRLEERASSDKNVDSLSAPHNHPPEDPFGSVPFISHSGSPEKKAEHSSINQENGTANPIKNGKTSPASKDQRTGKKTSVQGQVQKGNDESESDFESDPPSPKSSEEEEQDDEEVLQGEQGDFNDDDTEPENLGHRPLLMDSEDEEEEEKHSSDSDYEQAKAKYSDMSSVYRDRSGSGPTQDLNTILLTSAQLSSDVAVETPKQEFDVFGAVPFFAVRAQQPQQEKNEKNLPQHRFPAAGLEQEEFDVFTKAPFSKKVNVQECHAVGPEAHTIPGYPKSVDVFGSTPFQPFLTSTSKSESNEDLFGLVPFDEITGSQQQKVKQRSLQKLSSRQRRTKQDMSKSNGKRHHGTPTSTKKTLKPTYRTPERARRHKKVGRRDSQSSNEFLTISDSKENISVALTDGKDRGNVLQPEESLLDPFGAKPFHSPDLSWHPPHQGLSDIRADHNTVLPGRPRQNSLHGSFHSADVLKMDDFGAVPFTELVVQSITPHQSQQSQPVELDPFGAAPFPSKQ
# [8] = target: T3, Ras-related protein Rab-10 (Homo sapiens, UniProt P61026)
# T3 sequence (P61026 whole entry): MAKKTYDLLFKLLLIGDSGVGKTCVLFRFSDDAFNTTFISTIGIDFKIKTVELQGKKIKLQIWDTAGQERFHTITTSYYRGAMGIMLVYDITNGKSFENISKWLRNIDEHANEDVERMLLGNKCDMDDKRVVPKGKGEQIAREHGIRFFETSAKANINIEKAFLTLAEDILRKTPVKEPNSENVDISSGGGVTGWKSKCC
# Chain of Macrophage-stimulating protein receptor (Q04912 25-304 limits assumed): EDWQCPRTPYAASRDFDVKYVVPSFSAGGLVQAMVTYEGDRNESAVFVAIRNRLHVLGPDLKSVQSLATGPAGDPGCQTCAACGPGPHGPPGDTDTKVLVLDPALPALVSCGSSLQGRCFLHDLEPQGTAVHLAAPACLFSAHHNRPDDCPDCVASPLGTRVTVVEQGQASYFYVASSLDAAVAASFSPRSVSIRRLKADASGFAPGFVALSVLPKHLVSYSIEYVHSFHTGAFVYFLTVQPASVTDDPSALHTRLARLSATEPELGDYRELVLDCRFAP
# Chain of Macrophage-stimulating protein receptor (Q04912 310-1400 limits assumed): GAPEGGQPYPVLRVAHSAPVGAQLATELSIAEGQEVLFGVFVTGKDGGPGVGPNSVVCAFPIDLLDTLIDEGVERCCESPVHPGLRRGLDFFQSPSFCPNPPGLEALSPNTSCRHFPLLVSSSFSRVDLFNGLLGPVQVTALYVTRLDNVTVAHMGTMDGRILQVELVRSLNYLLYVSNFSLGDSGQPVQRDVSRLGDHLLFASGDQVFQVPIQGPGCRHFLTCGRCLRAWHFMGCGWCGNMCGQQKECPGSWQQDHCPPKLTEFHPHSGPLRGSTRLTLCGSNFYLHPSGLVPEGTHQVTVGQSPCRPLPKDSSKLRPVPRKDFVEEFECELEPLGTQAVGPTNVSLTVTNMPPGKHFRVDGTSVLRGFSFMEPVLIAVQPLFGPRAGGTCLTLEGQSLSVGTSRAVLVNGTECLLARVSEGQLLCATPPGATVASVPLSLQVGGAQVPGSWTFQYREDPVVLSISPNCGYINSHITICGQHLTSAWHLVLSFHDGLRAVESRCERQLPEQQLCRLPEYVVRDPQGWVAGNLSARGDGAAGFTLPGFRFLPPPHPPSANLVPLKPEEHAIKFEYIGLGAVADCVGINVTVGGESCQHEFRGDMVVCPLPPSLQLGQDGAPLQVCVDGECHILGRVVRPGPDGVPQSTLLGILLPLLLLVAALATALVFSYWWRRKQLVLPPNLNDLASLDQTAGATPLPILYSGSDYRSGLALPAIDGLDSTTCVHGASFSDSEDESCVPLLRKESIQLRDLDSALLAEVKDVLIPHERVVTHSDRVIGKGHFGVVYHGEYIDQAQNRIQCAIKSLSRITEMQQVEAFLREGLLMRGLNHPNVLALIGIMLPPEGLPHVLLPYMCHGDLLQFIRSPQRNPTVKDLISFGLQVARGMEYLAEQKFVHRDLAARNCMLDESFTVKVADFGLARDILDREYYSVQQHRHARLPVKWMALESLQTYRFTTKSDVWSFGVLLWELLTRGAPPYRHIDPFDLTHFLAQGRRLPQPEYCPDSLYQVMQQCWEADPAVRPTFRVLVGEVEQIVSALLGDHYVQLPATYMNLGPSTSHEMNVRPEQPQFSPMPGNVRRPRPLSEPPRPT
# Chain of AP2-associated protein kinase 1 (Q2M2I8 whole entry): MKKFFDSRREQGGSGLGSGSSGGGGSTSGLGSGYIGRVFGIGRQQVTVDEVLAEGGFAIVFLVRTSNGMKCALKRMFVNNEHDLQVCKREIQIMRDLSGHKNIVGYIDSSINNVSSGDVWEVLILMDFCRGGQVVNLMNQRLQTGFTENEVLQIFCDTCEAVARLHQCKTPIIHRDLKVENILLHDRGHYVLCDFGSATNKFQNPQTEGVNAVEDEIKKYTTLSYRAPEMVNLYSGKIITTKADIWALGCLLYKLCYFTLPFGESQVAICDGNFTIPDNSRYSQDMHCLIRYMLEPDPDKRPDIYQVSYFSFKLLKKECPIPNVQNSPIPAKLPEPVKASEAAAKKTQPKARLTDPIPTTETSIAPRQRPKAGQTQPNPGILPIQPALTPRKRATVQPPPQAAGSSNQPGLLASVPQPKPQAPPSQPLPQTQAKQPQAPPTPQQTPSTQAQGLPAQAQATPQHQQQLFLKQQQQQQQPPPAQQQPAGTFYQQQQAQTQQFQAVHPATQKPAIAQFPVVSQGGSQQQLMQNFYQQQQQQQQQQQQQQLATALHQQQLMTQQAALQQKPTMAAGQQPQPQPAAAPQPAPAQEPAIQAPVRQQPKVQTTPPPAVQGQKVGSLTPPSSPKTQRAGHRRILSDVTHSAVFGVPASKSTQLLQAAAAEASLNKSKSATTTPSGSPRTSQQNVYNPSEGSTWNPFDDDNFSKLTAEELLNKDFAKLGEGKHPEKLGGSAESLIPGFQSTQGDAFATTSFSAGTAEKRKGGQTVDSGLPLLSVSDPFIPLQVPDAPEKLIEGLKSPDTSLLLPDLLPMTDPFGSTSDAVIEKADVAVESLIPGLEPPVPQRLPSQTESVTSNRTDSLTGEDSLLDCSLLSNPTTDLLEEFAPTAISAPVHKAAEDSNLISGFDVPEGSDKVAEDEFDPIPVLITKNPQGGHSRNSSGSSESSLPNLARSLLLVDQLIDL
Kd [1],Kd [2],Kd [3],Kd [4],Kd [5],Kd [6],Kd [7],Kd [8],Structure (SMILES)
> 30 µM (inactive),> 30 µM (inactive),> 30 µM (inactive),> 30 µM (inactive),> 30 µM (inactive),> 30 µM (inactive),> 30 µM (inactive),> 30 µM (inactive),COc1ccc2c(OCc3nnc4ccc(-c5ccccc5)nn34)ccnc2c1 [AMG-208]
> 30 µM (inactive),> 30 µM (inactive),> 30 µM (inactive),> 30 µM (inactive),> 30 µM (inactive),> 30 µM (inactive),> 30 µM (inactive),> 30 µM (inactive),Cc1cc(Nc2nc(N[C@@H](C)c3ncc(F)cn3)ncc2Cl)n[nH]1 [AZD-1480]
> 30 µM (inactive),1.41 µM (active),0.493 µM (active),> 30 µM (inactive),> 30 µM (inactive),> 30 µM (inactive),1.71 µM (active),> 30 µM (inactive),COc1cccc(Nc2ncnn3ccc(CN4CC[C@@H](N)[C@H](O)C4)c23)c1 [BMS-690514]
> 30 µM (inactive),> 30 µM (inactive),> 30 µM (inactive),> 30 µM (inactive),> 30 µM (inactive),> 30 µM (inactive),> 30 µM (inactive),> 30 µM (inactive),COc1cc2ncnc3c2cc1OCCCCCN(C)Cc1ccc(Br)cc1N3 [JNJ-26483327]

# The remaining lines, values behind:
Structure (SMILES),Kd [1],Kd [2],Kd [3],Kd [4],Kd [5],Kd [6],Kd [7],Kd [8]
O=c1[nH]c([C@@H]2CCCN2)nc2c1oc1ccc(Cl)cc12,> 30 µM (inactive),> 30 µM (inactive),> 30 µM (inactive),> 30 µM (inactive),> 30 µM (inactive),> 30 µM (inactive),> 30 µM (inactive),> 30 µM (inactive)
Cc1c(NC(=O)OC[C@@H]2COCCN2)cn2ncnc(Nc3ccc4c(cnn4Cc4cccc(F)c4)c3)c12 [AC-480],> 30 µM (inactive),> 30 µM (inactive),> 30 µM (inactive),> 30 µM (inactive),> 30 µM (inactive),> 30 µM (inactive),> 30 µM (inactive),> 30 µM (inactive)
CCc1cc2c(cc1N1CCC(N3CCOCC3)CC1)C(C)(C)c1[nH]c3cc(C#N)ccc3c1C2=O [ALECTINIB],> 30 µM (inactive),> 30 µM (inactive),> 30 µM (inactive),> 30 µM (inactive),> 30 µM (inactive),> 30 µM (inactive),> 30 µM (inactive),> 30 µM (inactive)
NC[C@@](O)(c1ccc(Cl)cc1)c1ccc(-c2cn[nH]c2)cc1 [AT-13148],> 30 µM (inactive),> 30 µM (inactive),> 30 µM (inactive),> 30 µM (inactive),0.027 µM (active),> 30 µM (inactive),> 30 µM (inactive),> 30 µM (inactive)
COc1ccc(-c2ccc3ncc4c(c3c2)n(-c2ccc(N3CCNCC3)c(C(F)(F)F)c2)c(=O)n4C)cn1 [BGT-226 FREE BASE],> 30 µM (inactive),> 30 µM (inactive),> 30 µM (inactive),> 30 µM (inactive),> 30 µM (inactive),> 30 µM (inactive),> 30 µM (inactive),> 30 µM (inactive)
CC1(COc2ccc3c(c2)ncn3-c2ccc3cccc(N4CCC(N)CC4)c3n2)COC1 [CRENOLANIB],> 30 µM (inactive),> 30 µM (inactive),14.8 µM (active),0.128 µM (active),2.77 µM (active),> 30 µM (inactive),1.2 µM (active),> 30 µM (inactive)
CC[C@@](C)(Nc1ccnc(-c2c[nH]c3ncccc23)n1)C(=O)NCC(F)(F)F [DECERNOTINIB],> 30 µM (inactive),4.25 µM (active),> 30 µM (inactive),> 30 µM (inactive),> 30 µM (inactive),> 30 µM (inactive),5.75 µM (active),> 30 µM (inactive)
CNC(=O)c1ccc(Nc2ncc(C(F)(F)F)c(NCc3nccnc3N(C)S(C)(=O)=O)n2)cc1 [DEFACTINIB],> 30 µM (inactive),> 30 µM (inactive),> 30 µM (inactive),1.66 µM,9.05 µM (active),> 30 µM (inactive),> 30 µM (inactive),> 30 µM (inactive)
COc1cc(Nc2ncc(F)c(Nc3ccc4c(n3)N(COP(=O)(O)O)C(=O)C(C)(C)O4)n2)cc(OC)c1OC [FOSTAMATINIB],2.13 µM (active),> 30 µM (inactive),> 30 µM (inactive),> 30 µM (inactive),2.16 µM (active),> 30 µM (inactive),> 30 µM (inactive),> 30 µM (inactive)
CCc1nc(C(N)=O)c(Nc2ccc(N3CCC(N4CCN(C)CC4)CC3)c(OC)c2)nc1NC1CCOCC1 [GILTERITINIB],0.804 µM (active),0.025 µM (active),> 30 µM (inactive),> 30 µM (inactive),0.221 µM (active),0.512 µM (active),0.046 µM (active),> 30 µM (inactive)
Cc1c(Cn2c(C)nc3c(C(=O)O)cc(N4CCOCC4)cc32)cccc1C(F)(F)F [GSK-2636771],> 30 µM (inactive),> 30 µM (inactive),> 30 µM (inactive),> 30 µM (inactive),> 30 µM (inactive),> 30 µM (inactive),> 30 µM (inactive),> 30 µM (inactive)
O=S(=O)(c1cccc2c(O)nccc12)N1CCCNCC1 [HYDROXYFASUDIL],> 30 µM (inactive),> 30 µM (inactive),> 30 µM (inactive),> 30 µM (inactive),> 30 µM (inactive),> 30 µM (inactive),> 30 µM (inactive),> 30 µM (inactive)
C#Cc1cccc(Nc2ncnc3cc4c(cc23)OCCOCCOCCO4)c1 [ICOTINIB],> 30 µM (inactive),> 30 µM (inactive),> 30 µM (inactive),> 30 µM (inactive),> 30 µM (inactive),> 30 µM (inactive),> 30 µM (inactive),> 30 µM (inactive)
Cc1ccc(C(=O)Nc2ccc(Oc3cc4cnn(C)c4cc3-c3cn[nH]c3)c(F)c2)c(=O)n1-c1ccc(F)cc1 [MERESTINIB],0.232 µM,> 30 µM (inactive),> 30 µM (inactive),> 30 µM (inactive),> 30 µM (inactive),> 30 µM (inactive),> 30 µM (inactive),> 30 µM (inactive)

# Source: ChEMBL document CHEMBL3991601, “The target landscape of clinical kinase drugs” (Science, 2017)
